Among the data in patent publication EP0845265A1, “MUCOSAL P[…] PHYSIOLOGICALLY ACTIVE PEPTIDE” (Asahi Kasei Kogyo Kabushiki Kaisha, priority 1995, dated 1997) are absorption promoting action values, retold here.

Structures can show the parent of a compound that is named as a salt.

The data set in a line: In vivo absorption of elcatonin by rats (nasal administration, serum level by RIA). The conditions noted are these: diltiazem hydrochloride per se, without absorption promotor. More on the design: species or system Wistar rats. On the procedure:
In vivo absorption of elcatonin by rats :
Wistar rats, male (Japan SLC, body weight 200 - 250 g), fasting overnight, 4 rats in a group, were anesthetized by pentobarbital (Nembutal inj. Dainippon Pharm. Co., Japan).
Polyethylene tube was inserted into the trachea by incised in the corvex. Tube was inserted into postnasal space after esophageal incision. Administration was conducted by pouring drug solution 25 µl prepared in use using micropipette into the right naris. Blood sample 200 µl was collected from femoral vein time dependently before and after administration of drug. Blood sample was centrifuged (15,000 rpm/10 min./5°C) and stored at -30 °C before analysis.
Elcatonin 20 units/ml (in physiological saline) 0.25 ml was subcutaneously administered for comparison with absorption rate (comparison 1).
Blood level was assayed by RIA.
Absorption rate is calculated by using area under the curve (AUC) in the comparison 1 from the following equation. Absorption rate (%) =(AUC (I.N.))/(AUC (S.C.))×(dose (S.C.))/(dose (I.N.))×100 [formula] wherein I. N. : nasal administraion and S.C. : subcutaneous administration. As clearly shown in Fig. 2, absorption of elcatonin was enhanced in above 2 fold through nasal mucosa by administering with absorption promotor sodium glycocholate and calciuim channel blocker as compared with sodium glycocholic acid per se.

`COc1ccc([C@@H]2Sc3ccccc3N(CCN(C)C)C(=O)[C@@H]2OC(C)=O)cc1` [diltiazem hydrochloride, Diltiazem hydrochloride]: the absorption promoting action entry is on record as “no absorption promoting action”.
